Target: T1, GST-tagged KRAS G12D (2-169) (Homo sapiens, UniProt P01116, G12D)
T1 construct: GST-tagged KRAS^G12D (2-169, Reaction Biology, MSC-11-539); purchased Reaction Biology MSC-11-539 (KRAS G12D); MSC-11-502 (SOS1cat)
Assay: Nucleotide exchange assay (NEA), HTRF of SOS-mediated GTP-DY-647P1 binding
Type: biochemical
Conditions: 5 nM GST-KRAS G12D, 20 nM SOScat, 150 nM GTP; compound 1 h at RT
Excerpt: This activity is tightly regulated by GTPase activating proteins (GAPs) and guanine nucleotide exchange factors (GEFs). GEFs, such as SOS1/2, activate Ras proteins by exchanging GDP for GTP, thus returning Ras to its active conformation (Simanshu, Nissley, & McCormick, 2017). […] Homogenous time resolved fluorescence (HTRF) was used to detect SOS-mediated binding of a fluorescent GTP analog, GTP-DY-647P1 (Jena Biosciences NU-820-647P1) to GST-tagged KRAS^G12D (2-169, Reaction Biology, MSC-11-539).
GST-tagged KRAS^G12D (2-169) and anti-GST MAb Tb Cryptate Gold (CisBio 61GSTTLB) were diluted into assay buffer (20 mM HEPES, pH 7.3, 150 mM NaCl, 5 mM MgCl2, 0.05% BSA 0.0025% NP40, 1 mM DTT) to prepare a 2.5× donor solution. 5× compound was added to the protein mixture and incubated for 1 h at RT. 2.5× acceptor solution containing SOS1cat (564-1049, Reaction Biology MSC-11-502) and GTP-DY-647P1 were then added to the donor KRAS mixture such that the final concentration of the reaction contained 5 nM GST-tagged KRAS^G12D (2-169), 20 nM SOScat, and 150 nM GTP. The reaction was monitored using at RT with the Envision multimode plate reader (Ex/Em 337/665, […]) up to 90 minutes at 5 minute intervals. Data was blanked to reactions without SOS1 and % inhibition was calculated such that DMSO only=0% and blank=100%. Curve fitting was done using a 4 parameter fit. NEA KRAS G12D ID50 (uM) values of selected compounds are depicted in Table 2 with compounds having a value<0.01 uM as ++++; >0.01 uM to 0.1 uM as +++; >0.1 uM to 1 uM as ++; >1 uM to 20 uM as +; and >20 uM as NA.

T1 sequence (P01116 2-169 isoform P01116-2 G12D): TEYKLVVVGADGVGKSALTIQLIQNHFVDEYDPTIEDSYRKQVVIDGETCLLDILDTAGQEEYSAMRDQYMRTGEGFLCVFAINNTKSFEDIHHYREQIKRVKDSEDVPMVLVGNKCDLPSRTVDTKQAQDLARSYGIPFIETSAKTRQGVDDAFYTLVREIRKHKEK

Compound: O=C1CCCN(c2nc(OCC34CCCN3CC(F)C4)nc3c2COC2(CCc4c(Cl)cccc42)C3)CC1 (mixture of isomers) [Compound 21, 1-[4′-chloro-2-[[rac-(2R,8S)-2-fluoro-1,2,3,5,6,7-hexahydropyrrolizin-8-yl]methoxy]spiro[5,8-dihydropyrano[4,3-d]pyrimidine-7,1′-indane]-4-yl]azepan-4-one]
- IC50: 1000 to 20000 nM

Compound: N#Cc1c(N)sc2c1C1(CCC2)Cc2nc(OC[C@@]34CCCN3C[C@H](F)C4)nc(N3CCCCCC3)c2CO1 (mixture of isomers) [Compound 26, 2′-amino-4-(azepan-1-yl)-2-[[rac-(2R,8S)-2-fluoro-1,2,3,5,6,7-hexahydropyrrolizin-8-yl]methoxy]spiro[5,8-dihydropyrano[4,3-d]pyrimidine-7,4′-6,7-dihydro-5H-benzothiophene]-3′-carbonitrile]
- IC50: 1000 to 20000 nM

Compound: C[C@@]1(O)CCCN(c2nc(OC[C@@]34CCCN3C[C@H](F)C4)nc3c2COC2(CCc4c(Cl)cccc42)C3)C1 (single isomer, unassigned) [Compound 23B, (3R)-1-[(7*)-4′-chloro-2-[[(2R,8S)-2-fluoro-1,2,3,5,6,7-hexahydropyrrolizin-8-yl]methoxy]spiro[5,8-dihydropyrano[4,3-d]pyrimidine-7,1′-indane]-4-yl]-3-methyl-piperidin-3-ol]
- IC50: 1000 to 20000 nM

Compound: O=C1NC(=O)[C@]2(CCCN(c3nc(OC[C@@]45CCCN4C[C@H](F)C5)nc4c3COC3(CCCc5c(Cl)cc(O)cc53)C4)C2)N1 (single isomer, unassigned) [Compound 51A, (5R)-9-[(7*)-5′-chloro-2-[[(2R,8S)-2-fluoro-1,2,3,5,6,7-hexahydropyrrolizin-8-yl]methoxy]-7′-hydroxy-spiro[5,8-dihydropyrano[4,3-d]pyrimidine-7,1′-tetralin]-4-yl]-1,3,9-triazaspiro[4.5]decane-2,4-dione]
- IC50: 1000 to 20000 nM

Compound: OC1CCCN(c2nc(OC[C@@]34CCCN3C[C@H](F)C4)nc3c2COC2(CCCc4ccc(F)cc42)C3)CC1 (stereo partly drawn) [Compound 11, 1-[7′-fluoro-2-[[(2R,8S)-2-fluoro-1,2,3,5,6,7-hexahydropyrrolizin-8-yl]methoxy]spiro[5,8-dihydropyrano[4,3-d]pyrimidine-7,1′-tetralin]-4-yl]azepan-4-ol]
- IC50: 1000 to 20000 nM

Compound: F[C@H]1CN2CCC[C@@]2(COc2nc3c(c(N4CCCCCC4)n2)COC2(CCCc4ccccc42)C3)C1 (stereo partly drawn) [Compound 12, 4-(azepan-1-yl)-2-[[(2R,8S)-2-fluoro-1,2,3,5,6,7-hexahydropyrrolizin-8-yl]methoxy]spiro[5,8-dihydropyrano[4,3-d]pyrimidine-7,1′-tetralin]]
- IC50: 1000 to 20000 nM

Compound: O[C@@H]1CCN(c2nc(OC[C@@]34CCCN3C[C@H](F)C4)nc3c2COC2(CCc4c(Cl)cccc42)C3)CC[C@@H]1O (stereo partly drawn) [Compound 22, syn-1-[4′-chloro-2-[[(2R,8S)-2-fluoro-1,2,3,5,6,7-hexahydropyrrolizin-8-yl]methoxy]spiro[5,8-dihydropyrano[4,3-d]pyrimidine-7,1′-indane]-4-yl]azepane-4,5-diol]
- IC50: 1000 to 20000 nM

Compound: N#CN[C@@H]1CCCCN(c2nc(OC[C@@]34CCCN3C[C@H](F)C4)nc3c2CO[C@@]2(CCc4c(Cl)cccc42)C3)C1 [Compound 44, [(3R)-1-[(7S)-4′-chloro-2-[[(2R)-2-fluoro-1,2,3,5,6,7-hexahydropyrrolizin-8-yl]methoxy]spiro[5,8-dihydropyrano[4,3-d]pyrimidine-7,1′-indane]-4-yl]azepan-3-yl]cyanamide]
- IC50: 1000 to 20000 nM

Compound: C[C@@]1(NC#N)CCCN(c2nc(OC[C@@]34CCCN3C[C@H](F)C4)nc3c2COC2(CCc4c(Cl)cccc42)C3)C1 (stereo partly drawn) [Compound 46B, [(3R)-1-[(7*)-4′-chloro-2-[[(2R,8S)-2-fluoro-1,2,3,5,6,7-hexahydropyrrolizin-8-yl]methoxy]spiro[5,8-dihydropyrano[4,3-d]pyrimidine-7,1′-indane]-4-yl]-3-methyl-3-piperidyl]cyanamide; 2,2,2-trifluoroacetic acid]
- IC50: 1000 to 20000 nM

Compound: O=C(c1nn2c(c1Cl)CN(c1nc(OC[C@@]34CCCN3C[C@H](F)C4)nc3c1CO[C@@]1(CCc4c(Cl)cccc41)C3)CCC2)N1CCS(=O)(=O)CC1 [Compound 56, [3-chloro-5-[(7R)-4′-chloro-2-[[(2R,8S)-2-fluoro-1,2,3,5,6,7-hexahydropyrrolizin-8-yl]methoxy]spiro[5,8-dihydropyrano[4,3-d]pyrimidine-7,1′-indane]-4-yl]-4,6,7,8-tetrahydropyrazolo[1,5-a][1,4]diazepin-2-yl]-(1,1-dioxo-1,4-thiazinan-4-yl)methanone]
- IC50: 10 to 100 nM

Compound: CN1Cc2c(nc(OC[C@@]34CCCN3C[C@H](F)C4)nc2N2CCC[C@]3(C2)NC(=O)NC3=O)C[C@]12CCc1c(Cl)cccc12 [Compound 58, (5R)-9-[(7S)-4′-chloro-2-[[(2R,8S)-2-fluoro-1,2,3,5,6,7-hexahydropyrrolizin-8-yl]methoxy]-6-methyl-spiro[5,8-dihydropyrido[4,3-d]pyrimidine-7,1′-indane]-4-yl]-1,3,9-triazaspiro[4.5]decane-2,4-dione]
- IC50: 10 to 100 nM

Compound: CN(C)C(=O)c1nn2c(c1Cl)CN(c1nc(OC[C@@]34CCCN3C[C@H](F)C4)nc3c1COC1(CCc4ccc(C(F)F)cc41)C3)CCC2 (stereo partly drawn) [Compound 75, 3-chloro-5-[6′-(difluoromethyl)-2-[[(2R,8S)-2-fluoro-1,2,3,5,6,7-hexahydropyrrolizin-8-yl]methoxy]spiro[5,8-dihydropyrano[4,3-d]pyrimidine-7,1′-indane]-4-yl]-N,N-dimethyl-4,6,7,8-tetrahydropyrazolo[1,5-a][1,4]diazepine-2-carboxamide]
- IC50: 100 to 1000 nM

Compound: CN(C)C(=O)c1nn2c(c1Cl)CN(c1nc(OC[C@@]34CCCN3C[C@H](F)C4)nc3c1CN(CC#N)[C@@]1(CCc4cccc(F)c41)C3)CCC2 [Compound 101, 3-chloro-5-[(7S)-6-(cyanomethyl)-7′-fluoro-2-[[(2R,8S)-2-fluoro-1,2,3,5,6,7-hexahydropyrrolizin-8-yl]methoxy]spiro[5,8-dihydropyrido[4,3-d]pyrimidine-7,1′-indane]-4-yl]-N,N-dimethyl-4,6,7,8-tetrahydropyrazolo[1,5-a][1,4]diazepine-2-carboxamide]
- IC50: 100 to 1000 nM

Compound: CN(C)C(=O)c1nn2c(c1Cl)CN(c1nc(OC[C@@]34CCCN3C[C@H](F)C4)nc3c1CN(CC#N)[C@@]1(CCCc4ccccc41)C3)CCC2 [Compound 102, 3-chloro-5-[(7S)-6-(cyanomethyl)-2-[[(2R,8S)-2-fluoro-1,2,3,5,6,7-hexahydropyrrolizin-8-yl]methoxy]spiro[5,8-dihydropyrido[4,3-d]pyrimidine-7,1′-tetralin]-4-yl]-N,N-dimethyl-4,6,7,8-tetrahydropyrazolo[1,5-a][1,4]diazepine-2-carboxamide]
- IC50: 10 to 100 nM

Compound: CCN1Cc2c(nc(OC[C@@]34CCCN3C[C@H](F)C4)nc2N2CCCn3nc(C(=O)N(C)C)c(Cl)c3C2)C[C@]12CCc1cccc(F)c12 [Compound 103, 3-chloro-5-[(7S)-6-ethyl-7′-fluoro-2-[[(2R,8S)-2-fluoro-1,2,3,5,6,7-hexahydropyrrolizin-8-yl]methoxy]spiro[5,8-dihydropyrido[4,3-d]pyrimidine-7,1′-indane]-4-yl]-N,N-dimethyl-4,6,7,8-tetrahydropyrazolo[1,5-a][1,4]diazepine-2-carboxamide]
- IC50: 10 to 100 nM

From patent publication US11912723B2, “KRAS modulators and uses thereof” (Quanta Therapeutics, Inc., priority 2022, dated 2024)
